From patent publication US20220204489A1, “ARYLSULFONYLTHIOPHENECARBOXAMIDES AND ARYLSULFONYLFURANCARBOXAMIDES AS Kv3 POTASSIUM CHANNEL ACTIVATORS” (H. Lundbeck A/S, priority 2019, published 2022)

Target: T1, hKv3.1b (Homo sapiens, UniProt P48547)
T1 construct: expressed in transfected cells
T1 sequence (P48547 1-585 isoform P48547-2): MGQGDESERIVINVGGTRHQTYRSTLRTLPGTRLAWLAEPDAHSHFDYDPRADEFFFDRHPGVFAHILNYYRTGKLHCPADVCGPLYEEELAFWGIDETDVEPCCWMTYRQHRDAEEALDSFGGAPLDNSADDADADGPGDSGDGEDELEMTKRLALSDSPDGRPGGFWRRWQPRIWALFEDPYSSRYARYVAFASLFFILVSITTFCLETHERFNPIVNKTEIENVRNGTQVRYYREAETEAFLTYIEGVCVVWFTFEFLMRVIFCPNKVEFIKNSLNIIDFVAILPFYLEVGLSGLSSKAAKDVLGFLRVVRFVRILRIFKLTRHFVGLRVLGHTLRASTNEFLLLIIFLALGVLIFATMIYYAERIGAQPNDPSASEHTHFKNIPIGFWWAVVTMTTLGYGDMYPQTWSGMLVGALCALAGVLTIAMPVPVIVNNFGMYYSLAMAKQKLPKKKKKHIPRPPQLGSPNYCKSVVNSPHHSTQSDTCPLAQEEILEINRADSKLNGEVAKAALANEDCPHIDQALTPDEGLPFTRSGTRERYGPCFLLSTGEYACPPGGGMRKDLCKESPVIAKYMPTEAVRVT
Assay: QPatch automated whole-cell patch-clamp, shift of voltage threshold for channel activation
Assay type: cell-based
Conditions: HEK-293 cells stably expressing hKv3.1b; for ECdelta5mV: concentration needed to shift the threshold 5 mV, read from fitted concentration response curve; for Max threshold shift: maximum absolute shift of activation threshold to more hyperpolarized potentials at tested concentrations (0.37, 1.11, 3.33, 10, 30 μM)
Method: HEK-293 cells stably expressing hKv3.1b was used for the experiments. Cells were cultured in DMEM medium supplemented with 10% Fetal Bovine Serum, 100 ug/mL Geneticidin and 100 u/mL Penicillin/Streptomycin (all from Gibco). Cells were grown to 80-90% confluency at 37° C. and 5% CO2. On the day of the experiment the cells were detached from the tissue culture flasks by Detachin and resuspended in serum free medium containing 25 mM HEPES and transferred to the cell hotel of the QPatch. The cells were used for experiments 0-5 hours after detachment.
Patch-clamp recordings were performed using the automated recording system QPatch-16× (Sophion Bioscience, Denmark). Cells were centrifuged, SFM removed and the cells were resuspended in extracellular buffer containing (in mM): 145 NaCl, 4 KCl, 1 MgCl2, 2 CaCl2, 10 HEPES and 10 glucose (added fresh on the day of experiment); pH 7.4 adjusted with NaOH, 305 mOsm adjusted with sucrose.
Single cell whole-cell recordings were carried out using an intracellular solution containing (in mM): 120 KCl, 32.25/10 KOH/EGTA, 5.374 CaCl2, 1.75 MgCl2, 10 HEPES, 4 Na2ATP (added fresh on the day), pH 7.2 adjusted with KOH, 395 mOsm adjusted with sucrose. Cell membrane potentials were held at −80 mV and currents were evoked by voltage steps (200 ms duration) from −70 mV to +10 mV (in 10 mV increments). Vehicle (0.33% DMSO) or increasing concentration of compound (1) were applied and the voltage protocol was run 3 times (resulting in 3 min cpd incubation time). Five increasing concentrations of compound (1) were applied to each cell.
Leak subtraction protocol was applied at −33% of the sweep amplitude, and serial resistance values were constantly monitored.
Any cell where serial resistance exceeded 25 MOhm, membrane resistance less than 200 MOhm or current size at −10 mV less than 200 pA was eliminated from the subsequent analysis.
Data analysis was performed using Sophion's QPatch assay software in combination with Microsoft Excel™ (Redmond, Wash., USA).
Current voltage relationships were plotted from the peak current at the individual voltage steps normalized to the vehicle addition at 10 mV. The voltage threshold for channel activation was defined as 5% activation of the peak current at 10 mV in presence of vehicle. The activity of the compounds was described as the ability to shift this current voltage relationship to more hyperpolarized potentials and is given as the maximum absolute shift possible at the tested concentrations (0.37, 1.11, 3.33, 10, 30 μM). Concentration response curves were plotted from the threshold shift at the individual concentrations and were fitted excel fit model 205 sigmodal dose-response model (fit=A+((B−A)/1+((C/x)^D)))), where A is the minimum value, B the maximum value, C the EC50 value and D the slope of the curve. The concentration needed to shift the threshold 5 mV was readout from this curve (ECdelta5 mV).

Row | ECdelta5mV | Max threshold shift | Structure (SMILES)
1 | 1200 nM | 24 mV | Cc1ccc(S(=O)(=O)c2ccc(C(=O)NCc3cnc(C)cn3)s2)cc1 [Compound 1, 5-(4-methylbenzene-1-sulfonyl)-N-[(5-methylpyrazin-2-yl)methyl]thiophene-2-carboxamide]
2 | 1200 nM | 36 mV | Cc1cnc(CNC(=O)c2ccc(S(=O)(=O)c3ccc(Cl)cc3)s2)cn1 [Compound 2, 5-(4-chlorobenzene-1-sulfonyl)-N-[(5-methylpyrazin-2-yl)methyl]thiophene-2-carboxamide]
3 | 2200 nM | 19 mV | Cc1cnc(CNC(=O)c2ccc(S(=O)(=O)c3ccc(F)cc3)s2)cn1 [Compound 3, 5-(4-fluorobenzene-1-sulfonyl)-N-[(5-methylpyrazin-2-yl)methyl]thiophene-2-carboxamide]
4 | 1200 nM | 30 mV | Cc1cnc(CNC(=O)c2ccc(S(=O)(=O)c3ccccc3C)s2)cn1 [Compound 4, 5-(2-methylbenzene-1-sulfonyl)-N-[(5-methylpyrazin-2-yl)methyl]thiophene-2-carboxamide]
5 | 2100 nM | 21 mV | Cc1ccc(S(=O)(=O)c2ccc(C(=O)NCc3ccc(C)nc3)s2)cc1 [Compound 5, 5-(4-methylbenzene-1-sulfonyl)-N-[(6-methylpyridin-3-yl)methyl]thiophene-2-carboxamide]
6 | 3100 nM | 12 mV | Cc1ccc(S(=O)(=O)c2ccc(C(=O)NCc3ncc(C)cn3)s2)cc1 [Compound 6, 5-(4-methylbenzene-1-sulfonyl)-N-[(5-methylpyrimidin-2-yl)methyl]thiophene-2-carboxamide]
7 | 2500 nM | 17 mV | Cc1ccc(S(=O)(=O)c2ccc(C(=O)NCc3ccn(C)n3)s2)cc1 [Compound 7, 5-(4-methylbenzene-1-sulfonyl)-N-[(1-methyl-1H-pyrazol-3-yl)methyl]thiophene-2-carboxamide]
8 | 2900 nM | 16 mV | Cc1ccc(S(=O)(=O)c2ccc(C(=O)NCc3cccnc3)s2)cc1 [Compound 8, 5-(4-methylbenzene-1-sulfonyl)-N-[(pyridin-3-yl)methyl]thiophene-2-carboxamide]
9 | 2600 nM | 17 mV | Cc1ccc(S(=O)(=O)c2ccc(C(=O)NCc3cnn(C)c3)s2)cc1 [Compound 9, 5-(4-methylbenzene-1-sulfonyl)-N-[(1-methyl-1H-pyrazol-4-yl)methyl]thiophene-2-carboxamide]
10 | 1200 nM | 25 mV | Cc1ccc(S(=O)(=O)c2ccc(C(=O)NCc3cnccn3)s2)cc1 [Compound 10, 5-(4-methylbenzene-1-sulfonyl)-N-[(pyrazin-2-yl)methyl]thiophene-2-carboxamide]
11 | 2500 nM | 17 mV | Cc1ccc(S(=O)(=O)c2ccc(C(=O)NCc3nc(C)no3)s2)cc1 [Compound 11, 5-(4-methylbenzene-1-sulfonyl)-N-[(3-methyl-1,2,4-oxadiazol-5-yl)methyl]thiophene-2-carboxamide]
12 | 2600 nM | 14 mV | Cc1ccc(S(=O)(=O)c2ccc(C(=O)NCc3cc(C)no3)s2)cc1 [Compound 13, 5-(4-methylbenzene-1-sulfonyl)-N-[(3-methyl-1,2-oxazol-5-yl)methyl]thiophene-2-carboxamide]
13 | 2000 nM | 22 mV | Cc1ccc(S(=O)(=O)c2ccc(C(=O)NCc3ccc(C)nn3)s2)cc1 [Compound 14, 5-(4-methylbenzene-1-sulfonyl)-N-[(6-methylpyridazin-3-yl)methyl]thiophene-2-carboxamide]
14 | 3100 nM | 20 mV | Cc1ccc(S(=O)(=O)c2ccc(C(=O)NCc3ncn(C)n3)s2)cc1 [Compound 15, 5-(4-methylbenzene-1-sulfonyl)-N-[(1-methyl-1H-1,2,4-triazol-3-yl)methyl]thiophene-2-carboxamide]
15 | 1500 nM | 24 mV | COc1ccc(S(=O)(=O)c2ccc(C(=O)NCc3cnc(C)cn3)s2)cc1 [Compound 16, 5-(4-methoxybenzene-1-sulfonyl)-N-[(5-methylpyrazin-2-yl)methyl]thiophene-2-carboxamide]
16 | 1700 nM | 24 mV | Cc1ccc(S(=O)(=O)c2ccc(C(=O)NCc3cnc(C)nc3)s2)cc1 [Compound 17, 5-(4-methylbenzene-1-sulfonyl)-N-[(2-methylpyrimidin-5-yl)methyl]thiophene-2-carboxamide]
17 | 2400 nM | 17 mV | Cc1cnc(CNC(=O)c2ccc(S(=O)(=O)c3ccccc3)s2)cn1 [Compound 18, 5-(benzenesulfonyl)-N-[(5-methylpyrazin-2-yl)methyl]thiophene-2-carboxamide]
18 | 3800 nM | 14 mV | Cc1cc(F)ccc1S(=O)(=O)c1ccc(C(=O)NCc2cnccn2)s1 [Compound 19, 5-(4-fluoro-2-methylbenzene-1-sulfonyl)-N-[(pyrazin-2-yl)methyl]thiophene-2-carboxamide]
19 | 1900 nM | 29 mV | Cc1cnc(CNC(=O)c2ccc(S(=O)(=O)c3ccc(F)cc3C)s2)cn1 [Compound 20, 5-(4-fluoro-2-methylbenzene-1-sulfonyl)-N-[(5-methylpyrazin-2-yl)methyl]thiophene-2-carboxamide]
20 | 1700 nM | 32 mV | Cc1cnc(CNC(=O)c2ccc(S(=O)(=O)c3ccc(C(F)F)cc3)s2)cn1 [Compound 21, 5-[4-(difluoromethyl)benzene-1-sulfonyl]-N-[(5-methylpyrazin-2-yl)methyl]thiophene-2-carboxamide]
21 | 2100 nM | 27 mV | Cc1ccc(S(=O)(=O)c2ccc(C(=O)NCc3cnc(C)cn3)o2)cc1 [Compound 22, 5-(4-methylbenzene-1-sulfonyl)-N-[(5-methylpyrazin-2-yl)methyl]furan-2-carboxamide]
22 | 2400 nM | 17 mV | Cc1ccc(S(=O)(=O)c2ccc(C(=O)NCc3ccn(C)n3)o2)cc1 [Compound 23, 5-(4-methylbenzene-1-sulfonyl)-N-[(1-methyl-1H-pyrazol-3-yl)methyl]furan-2-carboxamide]
23 | 2700 nM | 20 mV | COc1ccc(S(=O)(=O)c2ccc(C(=O)NCc3cnccn3)o2)cc1 [Compound 24, 5-(4-methoxybenzene-1-sulfonyl)-N-[(pyrazin-2-yl)methyl]furan-2-carboxamide]
24 | 4100 nM | 15 mV | Cc1ccc(S(=O)(=O)c2ccc(C(=O)NCc3cc(F)ccn3)o2)cc1 [Compound 25, N-[(4-fluoropyridin-2-yl)methyl]-5-(4-methylbenzene-1-sulfonyl)furan-2-carboxamide]
